{"source": "patent US7183267B2", "about": "“β-lactamase inhibitors and methods of use thereof” (priority 2003, dated 2007)", "assay_type_in_all_cases": "cell-based", "key": {"[1]": {"test_system": "methicillin sensitive S. aureus ATCC 25923 (MSSA)", "experiment": "MIC assay, broth microdilution, MSSA", "conditions": "Staphylococcus aureus; MSSA; substance alone; at least 24 hours at 35° C.; read-out: MIC", "procedure": "(3) methicillin sensitive S. aureus ATCC 25923 (MSSA). This strain was obtained from ATCC and was used as a control.\n(§1) The strains were processed according to procedures recommended by ATCC, or procedures that are routinely used. Single colonies of each organism were picked for purification to generate pure working cultures. Prior to each experiment each strain was subcultured on a fresh Mueller-Hinton agar plate (MHA).\n(§2) Inocula for the MIC assays were prepared by transferring a tiny portion of one colony from a MHA plate to 2 ml of Mueller-Hinton broth (MHB) such that the estimated cell density was about 10^7 colony forming unit (CFU)/ml. This cell suspension was then further diluted 10-fold (to 10^6 CFU/ml) by transferring the 2 ml cell suspension to 18 ml of MHB. Addition of 50 μl of this dilute cell suspension to 50 μl of growth medium yielded the desired cell density, namely about 5×10^4 CFU/well, or 5×10^5 CFU/ml.\n(§3) The MIC value of oxacillin was determined using the broth microdilution procedure recommended by the National Committee of Clinical Laboratory Standards (NCCLS, 2000).\n(§4) The MIC experiments were performed in duplicate in 96-well microtiter plates using MHB. A stock solution of 2.6 mg/0.5 ml was prepared in dimethylsulfoxide (DMSO). A total of 8 two-fold serial dilutions were made with DMSO. Initial oxacillin doses used were (μg/ml): 64, 32, 16, 8, 4, 2, 1, and 0.5. Doses were adjusted in the confirmatory experiment, if needed, in order to establish an actual MIC value.\n(§5) To each well of a 96 well microtiter plate was added 47.5 μl of MHB. A volume of 2.5 μl of each dilution of oxacillin was then transferred to appropriate wells containing the medium. All wells, except the sterility control wells, were then inoculated with 50 μl of a diluted cell suspension to give a final volume of 100 μl and a final cell density of 5×10^4 CFU/well. The volume in the sterility control wells was adjusted to 100 μl with MHB. A sterile pipette tip was used to mix the contents of each well (one tip was used going from the low to the high concentration in the same column). The microtiter plates were covered with the lids and were placed in large Stratagene Big Blue plates (Cat. # 400041). Four large kimwipes moistened with tap water were placed near the edges of the Stratagene plates to prevent evaporation of the medium. The microtiter plates were incubated for at least 24 hours at 35° C. The plates were then evaluated for growth in each well. Controls included: medium sterility and negative control (medium and bacteria only).\n(§6) The procedure used to determine the antimicrobial activity of the compounds of the present invention was identical to the broth microdilution procedure described above with the exception of the preparation of the stock solutions. Stock solution at concentration of 40.96 mg/0.5 ml was prepared in DMSO for each of the compounds. A total of 8 two-fold dilutions were then made in DMSO. A volume of 2.5 μl of each dilution was delivered to appropriate wells. The initial doses used were (μg/ml): 512, 256, 128, 64, 32, 16, 8, and 4.\n(§7) A numerical code was used to evaluate the extent of growth as indicated below. • 0: absence of growth • 1: barely visible (faint) growth • 2: fair growth but less than the negative solvent control • 3: growth is equivalent to the negative solvent control.\n(§8) The lowest dose at which no visible growth is observed was determined to be the MIC value.\n(§9) MIC assays were performed with oxacillin and the four compounds. Each of the compounds was tested at the following 8 doses (μg/ml): 512, 256, 128, 64, 32, 16, 8, and 4. Oxacillin was tested at the following 8 doses (μg/ml): 64, 32, 16, 8, 4, 2, 1, and 0.5."}, "[2]": {"test_system": "methicillin resistant S. aureus from Stanford University Hospital (MRSA-SU)", "experiment": "MIC assay, broth microdilution, MRSA-SU", "conditions": "Staphylococcus aureus; MRSA-SU; substance alone; at least 24 hours at 35° C.; read-out: MIC", "text": "(2) methicillin resistant S. aureus from Stanford University Hospital Clinical Microbiology/Virology Laboratory (MRSA-SU). […] Such Staphylococci are also resistant to all penicillins, and all cephalosporins, in addition to all β-lactamase inhibitor combinations (including ampicillin/sulbactarn, amoxicillin/clavulanic acid, piperacillin/tazobactam), imipenem, and meropenem; and\nas §1, §2, §3, §4, §5, §6, §7, §8, §9"}, "[3]": {"test_system": "methicillin resistant S. aureus from Stanford University Hospital (MRSA-SU)", "experiment": "Matrix system: oxacillin plus β-lactamase inhibitor, MRSA-SU", "set-up": "key to growth score: 0 = no growth, 3 = growth equal to negative solvent control", "procedure": "as §5, §7, §8\nThe effect of the four compounds of the present invention on oxacillin resistance of the MRSA strains was determined using a matrix system. The β-lactamase inhibitors were tested at 5 doses against up to eleven concentrations of oxacillin. […] A 96-well microtiter plate was used for the matrix system. The procedure was identical to that described above for the MIC determination, with the exception that both oxacillin and one each of the β-lactamase inhibitors was added, 2.5 μl each, to the wells prior to addition of the test organisms.\nMatrix Study:Oxacillin and Compound FL201 with MRSA-SU\nMatrix Study: Oxacillin and Compound FL202 with MRSA-SU"}}}
{"smiles": "Cc1onc(-c2ccccc2)c1C(=O)N[C@@H]1C(=O)N2[C@@H]1SC(C)(C)[C@@H]2C(=O)O", "note": "[Oxacillin, reference compound]", "values": [{"measurement": "MIC", "setting": "[1]", "value": 0.25, "unit": "µg/mL"}, {"measurement": "MIC", "setting": "[2]", "value": "> 64", "unit": "µg/mL"}, {"measurement": "MIC", "setting": "[3]; Staphylococcus aureus, 24 h, Table 17, oxacillin alone, F1201 0", "value": 256, "unit": "µg/mL"}, {"measurement": "growth score", "setting": "[3]; Table 17, oxacillin 0.064 μg/ml, F1201 0", "value": 3}, {"measurement": "growth score", "setting": "[3]; Table 17, oxacillin 0.125 μg/ml, F1201 0", "value": 3}, {"measurement": "growth score", "setting": "[3]; Table 17, oxacillin 0.25 μg/ml, F1201 0", "value": 3}, {"measurement": "growth score", "setting": "[3]; Table 17, oxacillin 0.5 μg/ml, F1201 0", "value": 3}, {"measurement": "growth score", "setting": "[3]; Table 17, oxacillin 1 μg/ml, F1201 0", "value": 3}, {"measurement": "growth score", "setting": "[3]; Table 17, oxacillin 2 μg/ml, F1201 0", "value": 3}, {"measurement": "growth score", "setting": "[3]; Table 17, oxacillin 4 μg/ml, F1201 0", "value": 3}, {"measurement": "growth score", "setting": "[3]; Table 17, oxacillin 16 μg/ml, F1201 0", "value": 3}, {"measurement": "growth score", "setting": "[3]; Table 17, oxacillin 64 μg/ml, F1201 0", "value": 2}, {"measurement": "growth score", "setting": "[3]; Table 17, oxacillin 128 μg/ml, F1201 0", "value": 1}, {"measurement": "growth score", "setting": "[3]; Table 17, oxacillin 256 μg/ml, F1201 0", "value": 0}, {"measurement": "growth score", "setting": "[3]; Table 18, oxacillin 0.064 μg/ml, F1202 0", "value": 3}, {"measurement": "growth score", "setting": "[3]; Table 18, oxacillin 0.125 μg/ml, F1202 0", "value": 3}, {"measurement": "growth score", "setting": "[3]; Table 18, oxacillin 0.25 μg/ml, F1202 0", "value": 3}, {"measurement": "growth score", "setting": "[3]; Table 18, oxacillin 0.5 μg/ml, F1202 0", "value": 3}, {"measurement": "growth score", "setting": "[3]; Table 18, oxacillin 1 μg/ml, F1202 0", "value": 3}, {"measurement": "growth score", "setting": "[3]; Table 18, oxacillin 2 μg/ml, F1202 0", "value": 3}, {"measurement": "growth score", "setting": "[3]; Table 18, oxacillin 4 μg/ml, F1202 0", "value": 3}, {"measurement": "growth score", "setting": "[3]; Table 18, oxacillin 16 μg/ml, F1202 0", "value": 3}, {"measurement": "growth score", "setting": "[3]; Table 18, oxacillin 64 μg/ml, F1202 0", "value": 2}, {"measurement": "growth score", "setting": "[3]; Table 18, oxacillin 128 μg/ml, F1202 0", "value": 2}, {"measurement": "growth score", "setting": "[3]; Table 18, oxacillin 256 μg/ml, F1202 0", "value": 0}, {"measurement": "MIC (oxacillin)", "setting": "[3]; Table 18, oxacillin alone, F1202 0", "value": 256, "unit": "µg/mL"}]}
